The test system of test [1] is mature PC (CD24-mid & LYZ+) and secretory precursor (CD24-hi) populations. Briefly: Flow cytometry profiling of organoids in 2.5-D (CD24, LYZ). In kind it is cell-based, C57BL/6 mice. To be noted: 6-day ENR+CD+treatment, fraction of viable cells, n=3 bio. donors. (A flow cytometer gives signals particle by particle.)
Excerpt: Cells processed for flow cytometry were first gated to exclude potential debris or doublets (via widely accepted forward and side scatter gating), and subsequently gated for viability (via Zombie-violet viability dye exclusion), all viable cells were considered for CD24 & LYZ expression analysis. […] For flow cytometry profiling of the 6 validate small molecules, ISC-enriched ‘small clusters’ in 3D Matrigel culture were passaged to a “2.5D” 96-well plate culture system for six days of ENR, or ENR+CD+drug culture in the same manner as described previously with the exception of plating in 96-well plates prepared with a polymerized 70% Matrigel coating in each well. Plates were centrifuged at 50 g for 1 min at 4° C. to allow for cells to partially embed in Matrigel coating. Drugs were pinned into their respective wells using the Tecan from a drug stamp plate. Media was changed at day three, including pinning of the drug treatments. At day six, cells were washed 3× with basal media, then harvested from Matrigel by mechanical disruption in TrypLE Express to remove Matrigel and dissociate organoids to single cells. After vigorous pipetting and incubation at 37° C. for 20 mins, dissociated organoids were strained through a 96-well filter plate with a 30-40 μm filter (Pall) into an ultra low-bind 96-well plate (Costar) by centrifuging at 300×g for 3 mins at 4° C. The cell filtrate was centrifuged again at 300×g for 3 mins at 4° C. to pellet the cells. Cell pellets were resuspended in FACS buffer (2% FBS in PBS0), then transferred to an ultra low-bind 96-well plate for flow prep. Cells were stained with Zombie-violet viability dye (BioLegend) at 100× for viability staining and/or antibody staining solution. FITC-conjugated antibody for lysozyme and APC-conjugated antibody for CD24 were used at 100× dilution (BioLegend). Flow cytometry was performed using a LSR Fortessa (BD; Koch Institute Flow Cytometry Core at MIT). Flow cytometry data was analyzed using FlowJo X v10.1 software.
Test [2] concerns conventional organoid (ENR). Briefly: 384-well screen in conventional organoid (ENR), secreted LYZ (LYZ.NS, LYZ.S). In kind it is cell-based, C57BL/6 mice. To be noted: 6-day ENR+treatment, single treatment-dose.
The test system of test [3] is ISC-enriched organoids in ENR+CD. Briefly: 384-well primary screen of 6-day PC differentiation, secreted LYZ (LYZ.NS, LYZ.S). In kind it is cell-based, C57BL/6 mice. To be noted: 6-day ENR+CD+library treatment; SSMD > 0.997 and z-scored FC > 1.282. As for the experimental part:
This library offers translational advantages as many of the molecules are either presently used in the clinic for a wide variety of conditions or have been used in clinical trials and animal models.
To prepare for “2.5D” plating, cell-laden Matrigel and media were homogenized via mechanical disruption and centrifuged at 300 g for 3 min at 4° C. Supernatant was removed and the pellet washed and spun in basal culture medium repeatedly until the cloudy Matrigel above the cell pellet was gone. On the final wash, pellet was resuspended in basal culture medium, the number of organoids counted, and the cell pellet was resuspended in ENR+CD medium at ˜7 clusters/μL. 384-well plates were first filled with 10 μL of 70% Matrigel (30% basal media) coating in each well using a Tecan Evo 150 Liquid Handling Deck, and allowed to gel at 37° C. for 5 minutes. […] Compound libraries were pinned into prepped cell plates using 50 nL pins into 30 μL media/well. Cells were cultured at 37° C. with 5% CO2 for six days in ENR+CD medium supplemented with the tested compounds with a media change at three days. On day six, lysozyme secretion and cell viability were assessed using Lysozyme Assay Kit (EnzChek) and CellTiter-Glo 3D Cell Viability Assay (Promega), respectively, according to the manufacturers' protocols. […]

Test [4] has the same test system. Briefly: 384-well secondary screen in ENR+CD incl. early vs. full treatment, secreted LYZ (LYZ.NS, LYZ.S). In kind it is cell-based, C57BL/6 mice. The text has this:
We again assessed treatment effect size with replicate SSMD (using a difference between well replicates and median assay value for all same-plate control wells—see Materials and Methods, High-throughput screening: 384-well secondary screen format and early vs. full treatment analysis) and hits were considered statistically validated by an SSMD greater than the false-positive-derived cutoffs (βα1=0.89 for 8 replicates with alpha=0.05; see Materials and Methods, High-throughput screening: 384-well secondary screen format and early vs. full treatment analysis) for both LYZ.NS and LYZ.S assays (FIG. 7A). Per this new cutoff, 10 dose-treatment combinations corresponding to 7 small molecules were chosen as hits, with every passing dose-treatment having a greater than 0 ATP effect size.
For 384-well plate high-throughput screening, ISC-enriched organoids were passaged and split to single cells with TyrpLE (Thermo Fisher Scientific) and cultured for 2-3 days in ENR+CVY prior to transfer to a “2.5-D” 384-well plate culture system. To prepare for “2.5D” plating, cell-laden Matrigel and media were homogenized via mechanical disruption and centrifuged at 300 g for 3 min at 4° C. Supernatant was removed and the pellet washed and spun in basal culture medium repeatedly until the cloudy Matrigel above the cell pellet was gone. On the final wash, pellet was resuspended in basal culture medium, the number of organoids counted, and the cell pellet was resuspended in ENR+CD medium at ˜7 clusters/μL. 384-well plates were first filled with 10 μL of 70% Matrigel (30% basal media) coating in each well using a Tecan Evo 150 Liquid Handling Deck, and allowed to gel at 37° C. for 5 minutes. Then 30 μL of cell-laden media was plated at the center of each well of 384-well plates with the liquid handler, and the plates were spun down at 50 g for 1 minute to embed organoids on the Matrigel surface. Compound libraries were pinned into prepped cell plates using 50 nL pins into 30 μL media/well. Cells were cultured at 37° C. with 5% CO2 for six days in ENR+CD medium supplemented with the tested compounds with a media change at three days. On day six, lysozyme secretion and cell viability were assessed using Lysozyme Assay Kit (EnzChek) and CellTiter-Glo 3D Cell Viability Assay (Promega), respectively, according to the manufacturers' protocols. Briefly, screen plates were washed 3× with FluoroBrite basal media (2 mM GlutaMAX and 10 mM HEPES in FluoroBrite DMEM (Thermo Fisher Scientific)) using a BioTek 406 plate washer with 10 min incubations followed by a 1 min centrifugation at 200 g to settle media between washes. After removal of the third wash, 30 μL of non-stimulated FluoroBrite basal media was added to each screen well using a Tecan Evo 150 Liquid Handling Deck from a non-stimulated treatment master plate, and plates were incubated for 30 min at 37° C. After 30 minutes, the top 15 μL of media from each well of the screen plate was transferred to a non-stimulated LYZ assay plate containing 15 μL of 20× DQ LYZ assay working solution using a Tecan Evo 150 Liquid Handling Deck. The non-stimulated LYZ assay plate was covered, shaken for 10 min, incubated for 50 min at 37° C., then fluorescence measured (shake 10 s; […]/518 nm) using a Tecan M1000 Plate Reader. After the media transfer to the non-stimulated LYZ assay plate, the remaining media was removed from the screen plate and 30 μL of Stimulated FluoroBrite basal media (supplemented with 10 μM CCh) was added to each screen well using a Tecan Evo 150 Liquid Handling Deck from a stimulated treatment master plate, and plates were incubated for 30 min at 37° C. After 30 minutes, the top 15 μL of media from each well of the screen plate was transferred to a stimulated LYZ assay plate containing 15 μL of 20× DQ LYZ assay working solution using a Tecan Evo 150 Liquid Handling Deck. […]

Test [5] relates to 6-day ENR+CD cells. Nature of the test: Short-term (3-hour) stimulation of LYZ secretion, 2.5-D 96-well platform. In kind it is cell-based, murine. To be noted: 3-hour stimulation, across all tested doses. The text has this: We first sought to profile the potential short-term actors, IFN-γ, LPS, and CCh, and see if with the added resolution of this first-of-its-kind PC platform, we might be able to determine high-resolution EC50's. To generate sufficient cells for plating out all necessary conditions we first expanded and enriched ISCs in traditional 3-D culture and subsequently differentiated for 4 days towards PCs (ENR+CD). Next, we passaged and plated these cells into 96-well plates as 2.5-D and continued differentiating for an additional 2 days in ENR+CD. On day 6 of differentiation, each well was then washed with basal media repeatedly and stimulated with its respective agent, with a measurement of supernatant LYZ paired to cell pellet ATP (FIG. 2A). This screen was repeated on three separate occasions with cells from three distinct murine donors and analyzed combined. We first wanted to determine the approximate standardized effect size of each treatment at each dose, which was accomplished through the replicate-based strictly standardized mean difference (SSMD), an effect size measure based on the statistics of contrast variables, and particularly useful in screening applications as it is a measure which takes into account both mean difference and variance in a single measure. […] In total, we see that our 2.5-D platform does provide a reasonable system for assessing and screening for potential short-term modulators of PC antimicrobial secretion.
Small intestinal crypts were isolated from C57BL/6 mice of both sexes, aged between three to six months in all experiments. Crypts were then cultured in a Matrigel culture system. Briefly, crypts were resuspended in basal culture medium (Advanced DMEM/F12 with 2 mM GlutaMAX and 10 mM HEPES; Thermo Fisher Scientific) at a 1:1 ratio with Corning™ Matrigel™ Membrane Matrix—GFR (Fisher Scientific) and plated at the center of each well of 24-well plates. […]

Test [6] has as its system 6-day ENR+CD cells. Nature of the test: Cell pellet ATP after short-term (3-hour) stimulation, 2.5-D 96-well platform. In kind it is cell-based, murine. To be noted: CCh: adj. p<0.01 for 10 and 100 μM doses. The text has this: We first sought to profile the potential short-term actors, IFN-γ, LPS, and CCh, and see if with the added resolution of this first-of-its-kind PC platform, we might be able to determine high-resolution EC50's. To generate sufficient cells for plating out all necessary conditions we first expanded and enriched ISCs in traditional 3-D culture and subsequently differentiated for 4 days towards PCs (ENR+CD). Next, we passaged and plated these cells into 96-well plates as 2.5-D and continued differentiating for an additional 2 days in ENR+CD. On day 6 of differentiation, each well was then washed with basal media repeatedly and stimulated with its respective agent, with a measurement of supernatant LYZ paired to cell pellet ATP (FIG. 2A). This screen was repeated on three separate occasions with cells from three distinct murine donors and analyzed combined. We first wanted to determine the approximate standardized effect size of each treatment at each dose, which was accomplished through the replicate-based strictly standardized mean difference (SSMD), an effect size measure based on the statistics of contrast variables, and particularly useful in screening applications as it is a measure which takes into account both mean difference and variance in a single measure. […]

Test [7] has as its system 6-day ENR+CD cells. Nature of the test: Long-term (48-hour) modulators of basal and CCh-induced LYZ secretion. In kind it is cell-based, murine. To be noted: 48-hour treatment. The text has this: We next sought to profile potential long-term modulators of differentiated PC survival and antimicrobial secretion, as well as gauge the interaction between long-term modulators and short-term induced secretion (via CCh). To accomplish this, we employed a similar set up as in the short-term experiment, with the exception that upon plating day 4 ENR+CD cells we additionally supplemented in either MDP, LPS, TNF-α, or IFN-γ for the additional 2 days in culture and assayed all conditions for both basal and CCh-induced LYZ secretion over 3 hours on day 6 of differentiation (FIG. 3A). […] Additionally, we see that the long-term addition reduces CCh-induced secretory function relative to the untreated control for all agents (FIG. 3D).
Small intestinal crypts were isolated from C57BL/6 mice of both sexes, aged between three to six months in all experiments. Crypts were then cultured in a Matrigel culture system. Briefly, crypts were resuspended in basal culture medium (Advanced DMEM/F12 with 2 mM GlutaMAX and 10 mM HEPES; Thermo Fisher Scientific) at a 1:1 ratio with Corning™ Matrigel™ Membrane Matrix—GFR (Fisher Scientific) and plated at the center of each well of 24-well plates. Following Matrigel polymerization, 500 μL of small intestinal crypt culture medium (basal media plus 100× N2 supplement, 50×B27 supplement; Life Technologies, 500× N-acetyl-L-cysteine; Sigma-Aldrich) supplemented with growth factors EGF—E (50 ng/mL, Life Technologies), Noggin—N (100 ng/mL, PeproTech) and R-spondin 1—R (500 ng/mL, PeproTech) and small molecules CHIR99021—C (3 μM, LC Laboratories) and valproic acid—V (1 mM, Sigma-Aldrich) was added to each well. ROCK inhibitor Y-27632—Y (10 μM, R&D Systems) was added for the first 2 days of culture. Cells were cultured at 37° C. with 5% CO2, and cell culture medium was changed every other day. After 6 days of culture, crypt organoids were isolated from Matrigel by mechanical dissociation. To expand enriched ISCs (ENR+CV/Y) or Paneth Cells (ENR+CD), organoids were cultured in 24-well plates, suspended in 40 uL 3-D gels (50-50 GFR MATRIGEL®, Basal culture media), with 500 uL of crypt media supplemented with necessary growth factors and small molecules. ROCK inhibitor (Y) was added for the first two days of ISC culture following reconstitution from cryopreservation or trypLE passaging to single cells. Cell culture medium was changed every other day. After 4 days of culture in ENR+CV, cell clusters were differentiated to PCs under the ENR+CD condition for 96-well short and long-term screens. For 384-well differentiation screens, 4-day ENR+CV clusters were passaged to single cells using trypLE, replated and expanded another 3 days in 3-D ENR+CVY and then passaged directly into screens.
For 96-well plate high-throughput screening, 4-day differentiated (ENR+CD) cell clusters in 3D Matrigel were transferred to a “2.5-D” 96-well plate culture system. Briefly, cell culture gel and medium were homogenized via mechanical disruption and centrifuged at 300 g for 3 min at 4° C. […] On the last repeat, pellet was resuspended in basal culture medium, the number of cell clusters counted, and centrifuged at 300 g for 3 min at 4° C. […] At end time points (following 2 days in culture and 3 hours of stimulation), lysozyme secretion and cell viability were assessed using Lysozyme Assay Kit and CellTiter-Glo 3D Cell Viability Assay (Promega), respectively, according to the manufacturers' protocols. […]

`Cc1cn(-c2cc(NC(=O)c3ccc(C)c(Nc4nccc(-c5cccnc5)n4)c3)cc(C(F)(F)F)c2)cn1` [Nilotinib]: the “secretory precursor (CD24-hi) population relative to control” value in test [1] was “higher proportion”. Besides, the “LYZ.S reading versus ENR+DMSO” value in test [2] is given as “significantly lower”. Besides, the “primary screen hit status in LYZ.NS and LYZ.S assays” value in test [3] is “strongest LYZ assay-performing treatment-dose”. Also, the “biological potency compared with Bosutinib (LYZ assays)” value in test [4] (6-day ENR+CD+treatment) is “the more biologically potent”. The “validation in secondary screen (SSMD above cutoff for both LYZ.NS and LYZ.S)” value in test [4] (6-day ENR+CD+treatment vs ENR+CD+DMSO, cutoff 0.89, 8 replicates) is recorded as “multiple validated doses”.
Regarding `NC(=O)c1ccc(-c2nc(-c3ccc4c(c3)OCO4)c(-c3ccccn3)[nH]2)cc1` [SB431542], the “primary screen hit status in LYZ.NS and LYZ.S assays” value in test [3] is recorded as “strongest LYZ assay-performing treatment-dose”. For the same compound, the “LYZ.NS/ATP, early versus full treatment” value in test [4] (ENR+CD, 240 nM) is “significant (adj. p<0.05) difference between early and full treatment”. The “ATP-normalized LYZ assays (LYZ.NS/ATP, LYZ.S/ATP), early versus full treatment” value in test [4] (ENR+CD, across all doses) is reported as “suggestive trend across all doses”.
Take IFN-γ: cytokine interferon-gamma: the “SSMD effect size as short-term modulator of LYZ secretion” value in the test with 6-day ENR+CD cells [5] was “fairly weak effect sizes”. Further, the “effect on cellular ATP” value in the test on 6-day ENR+CD cells [6] is “no significant changes in cellular ATP”. Besides, the “effect size of reduction of CCh-induced secretory function relative to untreated control” value with 6-day ENR+CD cells [7] (CCh-induced secretion over 3 hours on day 6) is on record as “fairly moderate”. Further, the “change in basal LYZ secretion (SSMD effect)” value in the test with 6-day ENR+CD cells [7] (basal secretion over 3 hours on day 6) was “moderate increase in secretion”.

These data come from patent US20200237852A1, “Small Molecule Enhancers of Paneth Cell Function and Differentiation” (Massachusetts Institute of Technology, priority 2019, published 2020).
